# Test results from patent US20060159639A1, “Pseudo body odor composition and perfume composition for inhibiting body odor” (priority 2003, published 2006).
# Experiment: Suppression test of Experimental Example 1: masking and harmonizing effect in a cup, four expert panelists;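 on harmonizing: score 1 means in harmony 0 indefinite and −1 not in harmony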
# Details: 200 μl pseudo body odor composition of Example 4 and 10 μl perfume on filter papers in sealed about 500 ml cup, after 30 minutes, four expert panelists, scale 0-3
# Method: In the present invention, the selection of the above component (I), component (II) and component (III) was carried out as follows. That is, one of the pseudo body odor compositions mentioned above and a target fragrance component were mixed and left at room temperature for 30 minutes. Thereafter, evaluations of the masking and harmonizing effects to the acid odor were carried out by four expert panelists.
# After 30 minutes, a hole of about 1 cm in diameter was formed in the aluminum foil and the investigations of masking effect and the harmonizing effect were carried out according to following evaluation criteria by four expert panelists.
# 3: Excellent in the masking.
# 2: Substantially excellent in the masking.
# 1: Slightly sensible of the body odor (sweat odor and armpit odor).
# 0: Sensible of the body odor (sweat odor and armpit odor) (insufficient in the masking)
row,Compound,Masking
1,"CC(C)CC1CC(C)(O)CCO1 (stereo not drawn) [Dihydroroseoxide, 4-methyl-2-(2-methylpropyl)tetrahydro-2H-4-pyranol]",1.5 points
2,CO[C@]1(C)CC[C@@]23C[C@@H]1C(C)(C)[C@@H]2CC[C@H]3C [Cedryl methyl ether],1
3,CCC=C(C)C(O)CCCCC (stereo not drawn) [4-Methyl-3-decene-5-ol],2.5 points
4,CC(=O)OC/C=C(\C)CCC=C(C)C [Geranyl acetate],1
5,"CC1(C)CCCC2(C)C1CCC1(C)OCCC12 (stereo not drawn) [Ambroxan, Decahydro-3α, 6,6,9α-tetramethyldodecanhydronaphto[2,1-b]furan]",2
6,"CCc1ccc(CC(C)(C)C=O)cc1 [Floralozone, p-ethyl-α,α-dimethyl phenyl propyl aldehyde]",1.5 points
7,"CC(C)=CCCC1=CCC(C=O)CC1 (stereo not drawn) [Myracaldehyde, 4-(4-methyl-3-pentenyl)-3-cyclohexene-1-carbaldehyde]",1.5 points
8,"CC(=O)C1(C)CC2=C(CCCC2(C)C)CC1C (stereo not drawn) [Iso E super, 7-acetyl-1,2,3,4,5,6,7,8-octahydro-1,1,6,7-tetramethyl naphthalene]",1
9,CC(C)Cc1ccc2ncccc2c1 [Isobutyl quinoline],2
10,"O=C1CCCCCCCCOCCCCCCO1 [Oxalide, 10-oxa-16-hexadecanolide]",0
11,"CC(C=O)Cc1ccc2c(c1)OCO2 (stereo not drawn) [Helional, α-methyl-3,4-methylene dioxyhydrocinnamic aldehyde]",1
12,CC/C=C\CCOC(=O)c1ccccc1O [cis-3-Hexenyl salicylate],2
13,CC(=O)OC1CCCCC1C(C)(C)C (stereo not drawn) [2-tert-Butylcyclohexyl acetate],2
14,"CCOC(=O)C12CCCC1C1CCC2C1 (stereo not drawn) [Fluitate, ethyl tricyclo[5.2.1.0^2,6]decan-2-yl carboxylate]",1.5 points
15,"CC(C)(O)CCCC1=CCC(C=O)CC1 (stereo not drawn) [Kovanol, 4(3)-(4-hydroxy-4-methylpentyl)-3-cyclohexene-1-carboxy aldehyde]",1
16,CC1(C)C2CCC1(C)C(O)C2 (stereo not drawn) [Borneol],2.5 points
17,C=CCOC(=O)CCC1CCCCC1 [Allyl cyclohexyl propionate],2
18,CC(C)CCCC(C)CCO (stereo not drawn) [Dimethyl octanol],1.5 points
19,"COC(=O)c1c(C)cc(O)c(C)c1O [Evernyl, methyl dihydroxydimethyl benzoate]",0
20,C=CCc1ccc(O)c(OC)c1 [Eugenol],1.5 points
21,"CCC(=CCC1CC=C(C)C1(C)C)CO (stereo not drawn) [Levosandol, 2-ethyl-4-(2,2,3-trimethyl-3-cyclopentene-1-yl)-2-butene-1-ol]",2.5 points
22,"C=CCCC(=O)C1=CCCC(C)(C)C1 [α-Dynascone, 1-(5,5-dimethyl-cyclohexene-1-yl)-4-pentene-1-one]",3
23,CC(CO)c1ccccc1 (stereo not drawn) [2-Phenyl propanol],1
24,C/C=C\C(=O)C1C(C)=CCCC1(C)C (stereo not drawn) [α-Damascone],2
25,CC(=O)OCCC(C)CCC=C(C)C (stereo not drawn) [Citronellyl acetate],1.5 points
26,"CC(=O)c1c(C)cc(C(C)(C)C)cc1C [4-tert-Butyl-2,6-dimethylacetophenone]",2

row,Compound,Masking
1,CC(=O)CCC=C(C)C [Methyl heptenone],3
2,"CCCCCC1=C(C)CCC1=O [Dihydrojasmone, 3-methyl-2-pentyl-2-cyclopentene-1-one]",1
3,"Cc1cccc(CC(C)(C)CO)c1 [2,2-Dimethyl-3-(3-methylphenyl)propanol]",0.5 points
4,CC(C)=CCCC(C)=CC#N [Geranyl nitrile],3
5,CC(=O)OC1CCC(C(C)(C)C)CC1 (stereo not drawn) [p-tert-Butylcyclohexyl acetate],1.5 points
6,CC(=O)OC(C)(C)Cc1ccccc1 [Dimethylbenzyl carbinyl acetate],1
7,"O=C1CCCCCCCCCCCC(=O)OCCO1 [Musk T, ethylene brassylate]",0.5 points
8,CCC(C)CCCC(C)(C)O (stereo not drawn) [Tetrahydromyrcenol],2
9,CCCCCCCCCC=O [Decanal],1
10,"CC(C)(O)Cc1ccccc1 [α,α-Dimethylphenylethyl, α,α-dimethyl phenylethyl alcohol]",0.5 points
11,"O=C1CCCC=CCCCCCCCCCC1 [Ambretone, 5-cyclohexadecene-l-one]",1.5 points
12,"CC(C=O)Cc1ccc(C(C)C)cc1 (stereo not drawn) [Cyclamen aldehyde, 2-methyl-3-(4-isopropylphenyl)propanal]",1.5 points
13,"CC(C)[C@H]1CC[C@@H](CO)CC1 [Myol, cis-p-isopropylcyclohexyl methanol]",1
14,c1ccc2[nH]ccc2c1 [Indole],1.5 points
15,Methylionone soap,2
16,CCCC(C)C(=O)OCC (stereo not drawn) [Ethyl-2-methyl valerate],3
17,CCCCCC=O [Hexanal],3
18,CC(=O)OC(C)(C)C1CC=C(C)CC1 (stereo not drawn) [Terpinyl acetate],2
19,CCCCCC1CCC(=O)O1 (stereo not drawn) [γ-Nonalactone],2.5 points
20,COC(=O)c1ccccc1N [Methyl anthranilate],2.5 points
21,"COC(=O)c1ccccc1N=CCC(C)CCCC(C)(C)O (stereo not drawn) [Aurantiol, Hydoroxycitronellylidene methyl anthranilate]",2
22,CC(=O)/C(C)=C/C1C(C)=CCCC1(C)C (stereo not drawn) [γ-Methylionone],2
23,O=C(Cc1ccccc1)OCCc1ccccc1 [Phenylethyl phenyl acetate],2
24,CC(C)c1ccc(C=O)cc1 [Cumin aldehyde],1.5 points
25,CC(CC=O)CCCC(C)(C)O (stereo not drawn) [Hydroxycitronellal],1

# Same assay, conditions: 200 μl pseudo body odor composition of Example 4 and 10 μl perfume on filter papers in sealed about 500 ml cup, after 30 minutes, four expert panelists, scale −1 to 1
row,Compound,Harmonizing
1,"CC(C)CC1CC(C)(O)CCO1 (stereo not drawn) [Dihydroroseoxide, 4-methyl-2-(2-methylpropyl)tetrahydro-2H-4-pyranol]",0
2,CO[C@]1(C)CC[C@@]23C[C@@H]1C(C)(C)[C@@H]2CC[C@H]3C [Cedryl methyl ether],−1
3,CCC=C(C)C(O)CCCCC (stereo not drawn) [4-Methyl-3-decene-5-ol],0
4,CC(=O)OC/C=C(\C)CCC=C(C)C [Geranyl acetate],−1
5,"CC1(C)CCCC2(C)C1CCC1(C)OCCC12 (stereo not drawn) [Ambroxan, Decahydro-3α, 6,6,9α-tetramethyldodecanhydronaphto[2,1-b]furan]",1
6,"CCc1ccc(CC(C)(C)C=O)cc1 [Floralozone, p-ethyl-α,α-dimethyl phenyl propyl aldehyde]",0
7,"CC(C)=CCCC1=CCC(C=O)CC1 (stereo not drawn) [Myracaldehyde, 4-(4-methyl-3-pentenyl)-3-cyclohexene-1-carbaldehyde]",0
8,"CC(=O)C1(C)CC2=C(CCCC2(C)C)CC1C (stereo not drawn) [Iso E super, 7-acetyl-1,2,3,4,5,6,7,8-octahydro-1,1,6,7-tetramethyl naphthalene]",−1
9,CC(C)Cc1ccc2ncccc2c1 [Isobutyl quinoline],1
10,"O=C1CCCCCCCCOCCCCCCO1 [Oxalide, 10-oxa-16-hexadecanolide]",−1
11,"CC(C=O)Cc1ccc2c(c1)OCO2 (stereo not drawn) [Helional, α-methyl-3,4-methylene dioxyhydrocinnamic aldehyde]",0
12,CC/C=C\CCOC(=O)c1ccccc1O [cis-3-Hexenyl salicylate],1
13,CC(=O)OC1CCCCC1C(C)(C)C (stereo not drawn) [2-tert-Butylcyclohexyl acetate],1
14,"CCOC(=O)C12CCCC1C1CCC2C1 (stereo not drawn) [Fluitate, ethyl tricyclo[5.2.1.0^2,6]decan-2-yl carboxylate]",−1
15,"CC(C)(O)CCCC1=CCC(C=O)CC1 (stereo not drawn) [Kovanol, 4(3)-(4-hydroxy-4-methylpentyl)-3-cyclohexene-1-carboxy aldehyde]",0
16,CC1(C)C2CCC1(C)C(O)C2 (stereo not drawn) [Borneol],1
17,C=CCOC(=O)CCC1CCCCC1 [Allyl cyclohexyl propionate],0
18,CC(C)CCCC(C)CCO (stereo not drawn) [Dimethyl octanol],0
19,"COC(=O)c1c(C)cc(O)c(C)c1O [Evernyl, methyl dihydroxydimethyl benzoate]",−1
20,C=CCc1ccc(O)c(OC)c1 [Eugenol],0
21,"CCC(=CCC1CC=C(C)C1(C)C)CO (stereo not drawn) [Levosandol, 2-ethyl-4-(2,2,3-trimethyl-3-cyclopentene-1-yl)-2-butene-1-ol]",1
22,"C=CCCC(=O)C1=CCCC(C)(C)C1 [α-Dynascone, 1-(5,5-dimethyl-cyclohexene-1-yl)-4-pentene-1-one]",1
23,CC(CO)c1ccccc1 (stereo not drawn) [2-Phenyl propanol],−1
24,C/C=C\C(=O)C1C(C)=CCCC1(C)C (stereo not drawn) [α-Damascone],0
25,CC(=O)OCCC(C)CCC=C(C)C (stereo not drawn) [Citronellyl acetate],0
26,"CC(=O)c1c(C)cc(C(C)(C)C)cc1C [4-tert-Butyl-2,6-dimethylacetophenone]",0

row,Compound,Harmonizing
1,CC(=O)CCC=C(C)C [Methyl heptenone],1
2,"CCCCCC1=C(C)CCC1=O [Dihydrojasmone, 3-methyl-2-pentyl-2-cyclopentene-1-one]",0
3,"Cc1cccc(CC(C)(C)CO)c1 [2,2-Dimethyl-3-(3-methylphenyl)propanol]",−1
4,CC(C)=CCCC(C)=CC#N [Geranyl nitrile],1
5,CC(=O)OC1CCC(C(C)(C)C)CC1 (stereo not drawn) [p-tert-Butylcyclohexyl acetate],−1
6,CC(=O)OC(C)(C)Cc1ccccc1 [Dimethylbenzyl carbinyl acetate],−1
7,"O=C1CCCCCCCCCCCC(=O)OCCO1 [Musk T, ethylene brassylate]",−1
8,CCC(C)CCCC(C)(C)O (stereo not drawn) [Tetrahydromyrcenol],0
9,CCCCCCCCCC=O [Decanal],−1
10,"CC(C)(O)Cc1ccccc1 [α,α-Dimethylphenylethyl, α,α-dimethyl phenylethyl alcohol]",−1
11,"O=C1CCCC=CCCCCCCCCCC1 [Ambretone, 5-cyclohexadecene-l-one]",0
12,"CC(C=O)Cc1ccc(C(C)C)cc1 (stereo not drawn) [Cyclamen aldehyde, 2-methyl-3-(4-isopropylphenyl)propanal]",−1
13,"CC(C)[C@H]1CC[C@@H](CO)CC1 [Myol, cis-p-isopropylcyclohexyl methanol]",−1
14,c1ccc2[nH]ccc2c1 [Indole],−1
15,Methylionone soap,1
16,CCCC(C)C(=O)OCC (stereo not drawn) [Ethyl-2-methyl valerate],1
17,CCCCCC=O [Hexanal],1
18,CC(=O)OC(C)(C)C1CC=C(C)CC1 (stereo not drawn) [Terpinyl acetate],0
19,CCCCCC1CCC(=O)O1 (stereo not drawn) [γ-Nonalactone],1
20,COC(=O)c1ccccc1N [Methyl anthranilate],1
21,"COC(=O)c1ccccc1N=CCC(C)CCCC(C)(C)O (stereo not drawn) [Aurantiol, Hydoroxycitronellylidene methyl anthranilate]",1
22,CC(=O)/C(C)=C/C1C(C)=CCCC1(C)C (stereo not drawn) [γ-Methylionone],1
23,O=C(Cc1ccccc1)OCCc1ccccc1 [Phenylethyl phenyl acetate],0
24,CC(C)c1ccc(C=O)cc1 [Cumin aldehyde],−1
25,CC(CC=O)CCCC(C)(C)O (stereo not drawn) [Hydroxycitronellal],0
